This note sets out measurements from patent US12635718B2, “Flavanone derivatives and their use as sweetness enhancers” (Firmenich SA, priority 2019, dated 2026).

The structures appear in SMILES notation.

Test [1] concerns taste panelists. As to the kind of experiment: Taste panel rating of sweetness and licorice taste of 5% sucrose solutions. In kind it is in vivo, human. Conditions: scale 0 to 10, no enhancer 5.0. As for the experimental part:
A test compound, (2R,3R)-3-acetoxy-5,7,4′-trihydroxyflavanone (A01), was tested in comparison to naringenin for its sweetness enhancement of a 5% (w/w) aqueous solution of sucrose. Taste panelists were asked to taste the following 5% sucrose solutions in Henniez water and rate their sweetness on a scale from 0 to 10, and to rate the presence of any licorice taste in the sample on a scale from 0 to 10.
The test compound A01 was tested in comparison to other sweetness enhancers in a similar test to that set forth in Example 1. The comparative compounds are taxifolin 3-O-acetate (A02), and ampelopsin 3-O-acetate (A03).

The test system of test [2] is panelists. Put plainly: Sweetener replacement test: panel choice between beverages (rebaudioside M, sucralose). Type of test: in vivo, human. Conditions: for Panelists (of 45) who selected the beverage with test compound: statistical equivalence. The source says:
In one test, 45 panelists were asked to select between a beverage sweetened with 450 ppm rebaudioside M and a beverage with 300 ppm rebaudioside M and 12 ppm test compound A01. Of the 45 panelists, 23 selected the former, and 22 selected the latter, which is a statistical equivalence. […] In another test, 45 panelists were asked to select between a beverage sweetened with 160 ppm sucralose and a beverage with 120 ppm sucralose and 12 ppm test compound A01. Of the 45 panelists, 22 selected the former, and 23 selected the latter, which is a statistical equivalence.

Where [3] appears, read: +20 ppm in 5% sucrose solution (Table 2).

Regarding `CC(=O)O[C@H]1C(=O)c2c(O)cc(O)cc2O[C@@H]1c1ccc(O)cc1` [A01, (2R,3R)-3-acetoxy-5,7,4′-trihydroxyflavanone], the “Sweetness (0-10)” value in test [1] (+5 ppm in 5% (w/w) sucrose solution in Henniez water) was found to be 7.0; in test [1] (+10 ppm in 5% (w/w) sucrose solution in Henniez water) it was 8.0; in test [1] (setting [3]), 8.8. The “Reduction in concentration of sucralose permitted” value in test [2] (12 ppm test compound, 160 ppm to 120 ppm sucralose) came to 25%. Further, in test [2] (12 ppm test compound, 450 ppm to 300 ppm rebaudioside M), the “Reduction in concentration of rebaudioside M permitted” value is 33%. Besides, the “Panelists (of 45) who selected the beverage with test compound” value in test [2] (120 ppm sucralose + 12 ppm A01 versus 160 ppm sucralose) turned out to be 23; in test [2] (300 ppm rebaudioside M + 12 ppm A01 versus 450 ppm rebaudioside M), 22.

As for `CC(=O)OC1C(=O)c2c(O)cc(O)cc2OC1c1cc(O)c(O)c(O)c1` (stereo not drawn) [A03, ampelopsin 3-O-acetate, reference compound], the “Sweetness (0-10)” value in test [1] (setting [3]) is listed as 5.1.

In the case of `O=C1C[C@@H](c2ccc(O)cc2)Oc2cc(O)cc(O)c21` [naringenin, reference compound], the “Sweetness (0-10)” value in test [1] (+50 ppm in 5% (w/w) sucrose solution in Henniez water) was 5.8.
